Patent US8017350B2, “Glimepiride- and insulin-induced glycosylphosphatidylinositol-specific phospholipase C regulation” (Sanofi-Aventis Deutschland GmbH, priority 2004, dated 2011)

Tests used:
[1] = biological target: T1, GPI-PLC (T. brucei) (Trypanosoma brucei brucei, UniProt P09194); assay: GPI-PLC (T. brucei) assay, human placental aP substrate, TX-114 partitioning; format: biochemical
T1 construct: purchased Oxford Glycosystems (Oxford, UK)
Description: GPI-PLD (rat serum) was assayed according to “Hari et al. (1997) Biochim. Biophys. Acta 1355: 293-302” by incubation with 10 μl of human placental aP solution (100 U/ml in 10 mM Hepes/NaOH, pH 7.0, 150 mM NaCl) in 100 μl of 200 mM Tris/maleate (pH 7.0) and 1% Nonidet P-40 for 10 min at 37° C. and subsequent termination of the reaction by addition of 0.4 ml of ice-cold stop buffer (10 mM Hepes/NaOH, pH 7.0, 150 mM NaCl, 0.1 mM MgCl2 and 0.01 mM zinc acetate). GPI-PLC (T. brucei) was assayed as described in “Mensa-Wilmot et al. (1995) Methods Enzymol. 250: 641-655” by incubation with 5 μl of human placental aP solution (see above) in 50 μl of 50 mM Tris/HCl (pH 8.0), 0.25% Nonidet P-40 and 5 mM EDTA for 30 min at 37° C. and subsequent termination of the reaction by addition of 0.45 ml of stop buffer. PI-PLC (B. cereus) and adipocyte GPI-PLC (5-25 μg plasma membranes or hc/lcDIGs) were assayed by incubation with 10 μl of bovine erythrocyte acetylcholinesterase (AChE) solution (12 U/ml in 10 mM Tris/HCl, pH 7.4, 144 mM NaCl, 0.1% TX-100) in 100 μl of 20 mM Hepes/KOH (pH 7.8), 144 mM NaCl, 0.1% TX-100, 0.2 mM MgCl2 for 1 h at 25° C. and subsequent termination by adding 5 μl of glacial acetic acid and then 0.4 ml of 10 mM Tris/HCl (pH 7.4), 144 mM NaCl. Each reaction mixture was subjected to TX-114 partitioning (see below).
Pelleted hc/lcDIGs (10-50 μg protein) or (G)PI-PLC reaction mixtures (0.5 ml) were separated into amphiphilic and hydrophilic proteins using partitioning between TX-114-enriched and depleted phases according to “Bordier, C., (1981) J. Biol, Chem. […]” by suspending in 1 ml of ice-cold TX-114 (1%), 25 mM Tris/HCl (pH 7.4), 144 mM NaCl or mixing with 0.5 ml of ice-cold TX-114 (2%), respectively. After incubation for 1 h on ice, the mixture was layered onto a cushion of 0.4 ml of 0.25 M sucrose and 25 mM Tris/HCl (pH 7.4) on ice. Phase separation was induced by warming up to 37° C. and subsequent centrifugation (10,000×g, 1 min). After re-extraction of the lower TX-114-enriched phase, aliquots of the pooled upper TX-114-depleted phase were measured for 5′-Nuc, aP and AChE activity or precipitated (15 polyethylene glycol 4000) for SDS-PAGE analysis.
Table 1: GPI-PLC of hcDIGs from rat adipocytes, GPI-PLC from T. brucei and PI-PLC from B. cereus were incubated with solubilized and partially purified bovine erythrocyte AChE or human placental aP in the absence or presence of increasing concentrations (0.05 μM-1 mM) of the inhibitors indicated under appropriate conditions (see Materials and Methods). Cleavage rate was calculated from the amount of hydrophilic AChE and aP activity recovered with the TX-114-depleted phase upon TX-114 partitioning. Means+SD from at least 3 independent incubations with partitioning/enzyme assays in quadruplicate are given. n.a., not applicable.
Purified (G)PI-PLC/D from B. cereus, rat serum and T. brucei as well as total plasma membranes (PM) and hc/lcDIGs prepared from isolated rat adipocytes were incubated (10 min, 30° C.) with increasing concentrations of GPI-2350 and then assayed for amphiphilic-to-hydrophilic conversion of AChE and aP by TX-114 partitioning (see Materials and Methods). The lipolytic activity was calculated as % of the control reaction in the absence of GPI-2350 (set at 100%). Means+SD of at least 4 independent incubations with AChE and aP activity measurements in triplicate each are given.

[2] = biological target: T2, bovine AChE (Bos taurus, UniProt P23795); assay: AChE activity; format: biochemical; conditions: 50 μM
T2 construct: solubilized and partially purified bovine erythrocyte AChE; from tissue; host or cells: bovine erythrocytes
Description: Electroporation was performed as described in “Müller, G. et al., (2000) Mol. Cell. Biol. 20: 4708-4723”. Lipolysis was determined as release of glycerol or fluorescent NBD-FA from prelabeled and isoproterenol-stimulated adipocytes as described in “Müller, G. et al., (2003) Biochimie 85: 1245-1256”. Gce1 was detected by photolabeling of solubilized plasma membranes or hc/lcDIGs (10-50 μg protein) with 8-N3—[^32P]cAMP and subsequent phosphorimaging as described in “Müller, G. et al., (1994) Biochemistry 33: 12149-12159”. 5′-Nuc, aP and AChE activities were measured according to “Eliakim, R. et al., (1990) Biochim. Biophys. Acta 1355: 293-302”. Protein was determined using the BCA protein determination kit from Pierce (Rockford, Ill.) and BSA as calibration standard. SDS-PAGE was performed using precast gels (Novex, San Diego, Calif.; 10% Bis-Tris resolving gel, morpholinopropanesulfonic acid-SDS running buffer). Lumiimages were evaluated on a LumiImager using LumiImager software (Roche Diagnostics). Phosphor- and fluorescence images were processed and quantified using the Storm 860 PhosphorImager system (Molecular Dynamics, Gelsenkirchen, Germany). Figures were constructed using the ADOBE PHOTOSHOP software (Adobe Systems, Mountain View, Calif.).
FIG. 3: Selectivity of GPI-2350. […]

T1 sequence (P09194 whole entry): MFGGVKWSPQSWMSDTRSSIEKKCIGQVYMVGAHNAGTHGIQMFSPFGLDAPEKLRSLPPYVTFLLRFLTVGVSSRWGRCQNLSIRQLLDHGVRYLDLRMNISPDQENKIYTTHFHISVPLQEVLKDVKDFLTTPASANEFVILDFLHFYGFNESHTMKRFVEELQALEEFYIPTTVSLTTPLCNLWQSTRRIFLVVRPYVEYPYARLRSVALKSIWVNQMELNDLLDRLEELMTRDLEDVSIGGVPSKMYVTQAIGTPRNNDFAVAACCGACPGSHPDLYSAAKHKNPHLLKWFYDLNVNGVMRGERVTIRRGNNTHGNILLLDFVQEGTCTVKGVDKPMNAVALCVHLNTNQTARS
T2 sequence (P23795 31-614 isoform P23795-2 limits assumed): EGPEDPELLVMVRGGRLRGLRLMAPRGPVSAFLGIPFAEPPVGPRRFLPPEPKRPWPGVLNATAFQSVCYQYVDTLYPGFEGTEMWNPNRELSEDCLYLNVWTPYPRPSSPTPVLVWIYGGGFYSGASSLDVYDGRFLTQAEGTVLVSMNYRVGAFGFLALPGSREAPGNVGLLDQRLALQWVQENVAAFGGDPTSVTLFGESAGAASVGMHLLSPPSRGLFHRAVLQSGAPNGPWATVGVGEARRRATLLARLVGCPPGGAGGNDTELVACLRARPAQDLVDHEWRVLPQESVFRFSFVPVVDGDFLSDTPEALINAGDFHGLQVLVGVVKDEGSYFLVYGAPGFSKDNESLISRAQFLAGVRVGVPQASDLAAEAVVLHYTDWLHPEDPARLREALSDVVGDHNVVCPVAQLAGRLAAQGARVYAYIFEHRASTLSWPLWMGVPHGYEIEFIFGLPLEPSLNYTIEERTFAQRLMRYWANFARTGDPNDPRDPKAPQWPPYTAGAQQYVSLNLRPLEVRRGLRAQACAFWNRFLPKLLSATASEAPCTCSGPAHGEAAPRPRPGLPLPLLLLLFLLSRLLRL

Work on `CCCCCCCCCCCCP1(=O)O[C@@H]2[C@H](O)[C@@H](O)[C@H](O)[C@@H](O)[C@@H]2O1` (some centres unmarked) [GPI-2350, myo-inositol-1,2-cyclo-dodecylphosphonic acid] yielded an IC50 ([1]; IC50, Table 1, inhibitor 0.05 μM-1 mM) of 2000 to 5000 nM, an IC50 ([1]; apparent IC50, FIG. 2) of 2000 nM and an inhibition at 1000 µM ([1]; read-out: inhibition % at 1 mM) of 85%. For the same molecule, the “reversal of half-maximal inhibition” value ([1]; upon 10-fold dilution with excess of fresh GPI-protein substrate) was “completely reversed” and the “effect on AChE” value [2] was “not significantly affected”.
